“Also recorded” adds a separate entry of the source.
Key:
SW1 melanoma tumors = SW1 melanoma tumors in C3H/HeN mice fed control or L-fucose water; format: in vivo, mouse; settings: for reduced tumor growth: 100 mM L-fucose in drinking water from ~150 mm^3
Procedure: To determine which immune cell populations were affected by L-fucose, another mouse melanoma model treated with control or L-fucose-supplemented water was used. First, 1.25×10^6 SW1 mouse melanoma cells were injected into the back right flanks of the mice and allowed the tumors to grow to 150 mm^3. At 150 mm^3 (14 days), 100 mM L-fucose was administered via the drinking water to half of the mice. Tumor growth was monitored (FIGS. 3A and 3B). Total and specific subpopulations of tumor-infiltrating lymphocytes were assessed by cell flow cytometric analysis (FIGS. 3C and 3D). Assessed populations included F4/80 (macrophage)-, Gr-1 (MDSCs)-, Cd11c (Dendritic cells)-, and DX5 (NK cells)-positive cells. For T-cells, we probed for CD3 (general T-cell marker) and further for CD4 and CD8 (for those T cell subpopulations). Of the CD4-positive cells, CD25 positive cells was used to elucidate the T regulatory cells. […] Both CD4 and CD8 positive T cells (CD3+ cells) increased in response to fucose. However, myeloid derived suppressor cells (MDSCs) decreased in response to dietary fucose supplementation.
Tumors of SW1 or SMI melanoma cells from C3H/HeJ or C57BL/6 mice, respectively) were digested using 1× tumor digest buffer (0.5 mg/ml. Collagenase I, 0.5 mg/ml. Collagenase IV, 0.25 mg/ml. Hyalyronidase V. 0.1 mg/ml. DNAse I in HBSS (Millipore Sigma (St. Louis, MO)). Tumors were homogenized using the Miltenyi MACs dissociator. Red blood cells were lysed using ACK lysis buffer (Life Technologies, (Grand Island, NY)). Tumor homogenate cells were counted using a standard hemocytometer. (7) Flow Cytometry (a) TIL Profiling:
(§1) Single-cell suspensions from tumor and spleen tissue were stained with Live/Dead Zombie NIR (Biolegend, (San Diego, CA)) at 1:1,000 in PBS for 20 min. Cell suspensions were spun down and stained with the following antibodies: APC anti-mouse CD3 (0.5 μg/mL, BD Biosciences (San Jose, CA)), Pacific Blue anti-mouse CD4 ([…], BD Biosciences (San Jose, CA)), BV785 anti-mouse CD8 (0.5 μg/mL, BD Biosciences (San Jose, CA)), PerCP anti-mouse CD25 ([…], BD Biosciences (San Jose, CA)), FITC anti-mouse F4/80 (0.5 μg/mL, BD Biosciences (San Jose, CA)), PeCy7 anti-mouse CD11c (0.5 μg/mL, BD Biosciences (San Jose, CA)), PE anti-mouse NK1.1 (0.5 μg/mL, BD Biosciences (San Jose, CA)), PE anti-mouse DX5 (0.5 μg/mL, BD Biosciences (San Jose, CA)), PerCP-Cy5.5 anti-mouse CD11b (0.5 μg/mL, BD Biosciences (San Jose, CA)). After staining, the cells were washed and fixed (2% formaldehyde), followed by another wash and flow cytometric analysis. The compensation controls were prepared using 0.5 μg/ml. of each antibody with beads UltraComp eBeads™, (ThermoFisher Scientific (Waltham, MA)). All samples were subject to flow cytometric analysis using a LSR Flow Cytometer (BD Biosciences (San Jose, CA)). Flow cytometric data was further analyzed using FlowJo™ analysis software (BD Biosciences (San Jose, CA)). TIL profiles were determined as a measure of TIL subpopulations per gram of tumor tissues or % of total splenocytes.
FFPE mouse tumor sections were immunostained with FITC-conjugated AAL lectin (0.4 μg/mL, Vector Laboratories (Burlingame, CA)), rabbit anti-Mart-1 (0.2 μg/mL, Millipore Sigma (St. Louis, MO), and rabbit anti-S100 (0.2 μg/mL, Agilent Technologies (Santa Clara, CA)), followed by AlexaFluor 594 donkey anti-rabbit secondary antibody (0.05 μg/mL, ThermoFisher Scientific (Waltham, MA)). The slides were mounted with VECTASHIELD®+DAPI (Vector Laboratories (Burlingame, CA)). Microscopy images were acquired using a Keyence BZ-X710 microscope (Osaka, Japan), and images were measured for AAL-positive signal within MARTI-/S 100-positive regions (designated as melanoma regions of interest) using FIJI software (NIH). Statistical analysis was performed using GraphPad Prism™ (San Diego, CA).
Four-to-six-week-old female C3HeN and male C57BL6 mice were purchased from Charles Rivers Laboratories for the indicated experiments. […]

SM1 tumors = assay: CD4+/CD8+ T cell immunodepletion, SM1 model; format: in vivo, mouse; settings: CD4+ T cell-depleted mice
Procedure: as §1, with “All samples were subject to flow cytometric analysis using a LSR Flow Cytometer (BD Biosciences (San Jose, CA)).” left out, “splenocytes. […]” for “splenocytes.”

human CD4+ T cells = assay: CD3/CD28 human CD4+ T cell activation assay / IFNγ ELISA; format: cell-based
Procedure: Human CD4^+ T cells were isolated from fresh PBMC using a CD4^+ T cell negative selection isolation kit (Stem Cell Technologies, (Vancouver CA)) according to manufacturer's protocols. CD4^+ T cells were cultured in the presence of DMSO, 250 μM FUTi (Millapore Sigma (St. Louis, MO)), or 250 μM L-fucose 3 days prior to activation. After 3 days, the CD4^+ T cells were activated using anti-CD3/CD28 Dynabeads (ThermoFisher Scientific (Waltham, MA)) in a 1:1 bead: CD4^+ T cell ratio. After 24 h, supernatants were collected and IFNγ ELISA was performed according to manufacturer's protocols (Biolegend (San Diego, CA)).

[1] = empty vector-expressing SW1 tumors
[2] = vs control diet, listed as L-fuc

Structure (SMILES): C[C@H](O)[C@@H](O)[C@@H](O)[C@H](O)C=O [L-fucose]
- increase in tumor fucosylation (SW1 melanoma tumors; 100 mM L-fucose in drinking water): ~2.25 fold
- reduced tumor growth (SW1 melanoma tumors): > 65%
- reduced tumor growth (SW1 melanoma tumors; listed as L-fuc): ~50%
- increase in total TIL counts / infiltrating immune cells per gram of tumor (SW1 melanoma tumors; 100 mM L-fucose in drinking water, flow cytometry): 10-50 fold
- reduced growth of EV tumors (SW1 melanoma tumors; [1]): ~50%
- total TILs in EV tumors (SW1 melanoma tumors; [1]): doubling
- splenic lymphocyte profiles (SW1 melanoma tumors; flow cytometry): without significant changes
- additive effect of L-fuc in mFuk tumors (SW1 melanoma tumors; mFuk-expressing SW1 tumors): No additive effects
- absolute counts of each TIL subpopulation (SW1 melanoma tumors; vs control diet): increased
- intratumoral CD4+ and CD8+ T cells (SW1 melanoma tumors; vs control diet): increased; also recorded: doubled
- myeloid derived suppressor cells (MDSCs) in tumor (SW1 melanoma tumors; vs control diet): decreased
- overall immune infiltration of tumors (SW1 melanoma tumors; vs control diet): increased
- intratumoral CD4+ and CD8+ T cells (SW1 melanoma tumors; [2]): doubling
- myeloid derived suppressor cells (MDSCs) in tumor (SW1 melanoma tumors; [2]): either decreased or low
- L-fuc-triggered suppression of SM1 tumors and TIL increases (SM1 tumors): abrogated
- increase of CD4+ T cell activation (IFNγ production) (human CD4+ T cells; 250 μM, 3 days before CD3/CD28 activation): ~37%
- IFN-γ production relative to DMSO treated controls (human CD4+ T cells; FIG. 13): increase

Reference: patent US12642809B2, “Fucosylation and immune modulation in cancer” (H. LEE MOFFITT CANCER CENTER AND RESEARCH INSTITUTE, INC., priority 2019, dated 2026)
